Four compounds from US11358987B2, “Albicidin derivatives, their use and synthesis” (priority 2018, dated 2022) can be followed below.

In general, MIC refers to the least concentration at which growth counts as inhibited.

Structures are written as SMILES. Converted amounts (≈) assume the structure as drawn. Where two headings read alike, the source gives them in different places.

Common to all, as to experiment: Microdilution assay, MIC determination (CLSI M07-A9)
Holding throughout (assay type): cell-based
For orientation: Broth dilution looks for growth in wells or tubes with falling amounts of substance.

The test system of one experiment is E. coli DSM1116. The conditions noted are these: Escherichia coli. Here is the method:
(§1) E. coli DSM 1116; E. coli BW25113; S. typhimurium TA100; Bacillus subtilis DSM10; M. phlei DSM750 and Micrococcus luteus DSM1790
(§2) The tests were performed using the micro dilution method.
(§3) The determination of MIC values was performed according to the ninth edition of the Approved Standard M07-A9 (CLSI. Methods for Dilution Antimicrobial Susceptibility Tests for Bacteria That Grow Aerobically; Approved Standard-Ninth Edition. CLSI document M07-A9. Wayne, Pa.: Clinical and Laboratory Standards Institute; 2012.)
(§4) The test was carried out for the six different bacterial strains 20 μL of cryo stock of each strain were inoculated in 20 mL of LB media (Lysogeny broth: 10 g/L peptone, 5 g/L yeast extract, 5 g/L NaCl) followed by incubation over night at 37° C., 200 rpm. The test inoculum was adjusted by the 0.5 McFarland Standard (OD625 from 0.08 to 0.1). Within 15 min of preparation, the adjusted inoculum suspension was diluted in MHBII media (BBL™ Mueller-Hinton Broth II, Becton, Dickinson and Company, New Jersey/USA) so that each well contained approximately 5×10^5 CFU/mL in a final volume of 100 μL. 95 μL of the inoculum were applied per well and 5 μL of the (diluted) antibiotic substance were added.
(§5) Previously the dry antibiotic compounds were dissolved in DMSO (100%) with a concentration of 2560 μg/mL and the resulting stock solutions were further diluted in DMSO (100%). 5 μL of each antibiotic dilution were applied to the microdilution tray to reach final concentrations of 64 μg/mL to 0.008 μg/mL. One row of each well plate was left as a growth control without antibiotic substances and another row of the microdilution tray was used as sterility control (only MHB II-media). The antimicrobial effect of the solvent (DMSO) was tested by adding 5 μL DMSO to several wells without antibiotics.
(§6) Purity check and cell titer control were performed according to International Standard M07-A9 on Mueller-Hinton II Agar (Mueller Hinton II Broth, 15 g/L agar-agar).
(§7) Both microdilution trays and agar plates were incubated at 37° C. for 20 h and subsequently analyzed visually.

For a further experiment, the system named is S. typhimurium TA100. As to conditions: Salmonella enterica, 20 h. Here is the method: as §1, §2, §3, §4, §5, §6, §7
For a further experiment, the system named is E. coli BW25113. As to conditions: Escherichia coli. Here is the method:
as §1, §2, §3, §4, §5, §6, §7

The test system of a further experiment is B. subtilis DSM10. As to conditions: Bacillus subtilis; B. subtilis DSM10; 37° C., 20 h, MHBII media; read-out: MIC. Here is the method:
as §1, §2, §3, §4, §5, §6, §7

A further experiment concerns M. luteus DSM1790. The conditions noted are these: Micrococcus luteus; M. luteus DSM1790; 37° C., 20 h, MHBII media; read-out: MIC. Here is the method: as §1, §2, §3, §4, §5, §6, §7
The test system of the next experiment is M. phlei DSM750. The conditions noted are these: Mycolicibacterium phlei; M. phlei DSM750; 37° C., 20 h, MHBII media; read-out: MIC. Here is the method: as §1, §2, §3, §4, §5, §6, §7
The mark [1] stands for this setting: E. coli DSM1116, 37° C., 20 h, MHBII media, read-out: MIC.
Setting [2] is: S. typhimurium TA100, 37° C., MHBII media, read-out: MIC.
The mark [3] stands for this setting: E. coli BW25113, 37° C., 20 h, MHBII media, read-out: MIC.

In the case of `CC(C)Oc1c(NC(=O)c2ccc(NC(=O)[C@H](Cc3c[nH]nn3)NC(=O)c3ccc(NC(=O)c4ccc(C#N)cc4)cn3)cn2)ccc(C(=O)Nc2ccc(C(=O)O)cc2)c1O` [Compound 18], the MIC with E. coli DSM1116 (setting [1]) is 31 µg/mL (≈ 37 µM); in the experiment on S. typhimurium TA100 (setting [2]), not above 16 µg/mL; in the experiment on E. coli BW25113 (setting [3]), not above 16 µg/mL; in the experiment with B. subtilis DSM10, not above 16 µg/mL; in the experiment on M. luteus DSM1790, not above 16 µg/mL; in the experiment on M. phlei DSM750 it was 31 µg/mL (≈ 37 µM).

Regarding `COc1nc(C(=O)Nc2ccc(C(=O)O)nc2OC)ccc1NC(=O)c1ccc(NC(=O)[C@H](Cc2c[nH]nn2)NC(=O)c2ccc(NC(=O)/C(C)=C/c3ccc(O)cc3)cc2)cc1` [Compound 19], the minimum inhibitory concentration (MIC) was determined as 500 µg/mL (≈ 585 µM) with E. coli DSM1116 (setting [1]); 500 µg/mL (≈ 585 µM) in the experiment on S. typhimurium TA100 (setting [2]); 1000 µg/mL (≈ 1170 µM) in the experiment with E. coli BW25113 (setting [3]); 4000 µg/mL (≈ 4680 µM) in the experiment on B. subtilis DSM10; 2000 µg/mL (≈ 2340 µM) in the experiment with M. luteus DSM1790; 8000 µg/mL (≈ 9360 µM) with M. phlei DSM750.

Consider `COc1c(NC(=O)c2ccc(NC(=O)[C@H](Cc3c[nH]nn3)NC(=O)c3ccc(NC(=O)/C(C)=C/c4ccc(O)cc4)cc3)cc2)ccc(C(=O)Nc2ccc(C(=O)O)nc2)c1O` [Compound 20], for which the minimum inhibitory concentration (MIC) with E. coli DSM1116 (setting [1]) was more than 8000 µg/mL; in the experiment on S. typhimurium TA100 (TYPHIMURIUM), 125 µg/mL (≈ 149 µM); in the experiment with E. coli BW25113 (setting [3]), more than 8000 µg/mL; in the experiment on B. subtilis DSM10 it was not below 8000 µg/mL; in the experiment with M. luteus DSM1790, not below 8000 µg/mL; in the experiment with M. phlei DSM750, not below 8000 µg/mL.

For the compound `COc1c(NC(=O)c2ccc(NC(=O)[C@H](Cc3c[nH]nn3)NC(=O)c3ccc(NC(=O)/C(C)=C/c4ccc(O)cc4)cc3)cc2)ccc(C(=O)Nc2ccc(C(=O)O)cn2)c1O` [Compound 21], the MIC stood at 125 µg/mL (≈ 149 µM) with E. coli DSM1116 (DSM1116, 20 h); 16 µg/mL (≈ 19.1 µM) in the experiment on S. typhimurium TA100 (setting [2]); 125 µg/mL (≈ 149 µM) in the experiment on E. coli BW25113 (BW25113, 20 h); 4000 µg/mL (≈ 4760 µM) in the experiment on B. subtilis DSM10; 4000 µg/mL (≈ 4760 µM) in the experiment on M. luteus DSM1790; 4000 µg/mL (≈ 4760 µM) in the experiment with M. phlei DSM750.
